Results on 20 molecules are retold here after US20240208969A1, “SUBSTITUTED FUSED BICYCLIC COMPOUNDS AS PARP INHIBITORS AND THE USE THEREOF” (IMPACT THERAPEUTICS (SHANGHAI), INC., priority 2021, published 2024).

Broadly, the IC50 is the midpoint of a concentration-inhibition curve.

A value given as a limit tells only on which side of the number the result lay.

One assay has as its target PARP2 (Homo sapiens, UniProt Q9UGN5). Put plainly: PARP2 chemiluminescent assay. The assay is classed as biochemical. The following applies: recombinant PARP2 enzyme activity, chemiluminescence. The protocol:
(§1) Mix the solution of recombinant poly ADP ribotransferase 1 and 2 (PARP1 and PARP2) (40 ng enzyme/well) and the compounds to be tested, respectively. And then added to a 96-well plate coated with […] mixture, incubated at room temperature for 1 h. Then add 50 μL 0.3 ng/mL Streptavidin-HRP to each well. The plates were incubated for 30 minutes at room temperature. Finally, the plates were treated with streptavidin-HRP followed by addition of the ELISA ECL substrate to produce chemiluminescence that can then be measured using a chemiluminescence reader. The inhibition rate of the compound to PARP1/2 enzyme activity was calculated according to the following formula. [formula] IC50 value is obtained by fitting the s-shaped dose response curve equation by using XL Fit software. The curve equation is Y=100/(1+10^(log C−log IC50)), C is the compound concentration. Table 1 summarizes the inhibitory effects of compounds on PARP1 and PARP2 enzyme activity (IC50), wherein +++++ indicates IC50≤1 nM; ++++ indicates 1<IC50≤10 nM; +++ indicates 10 nM<IC50≤100 nM: ++ indicates 100 nM<IC50≤1 μM; + indicates IC50>1 μM.

The subject of the next assay is MDA-MB-436 cells. Put plainly: Inhibition of proliferation of human breast cancer MDA-MB-436 cell line (CCK-8, 7 days). The assay is classed as cell-based. As to conditions: Homo sapiens, 168 h, proliferation of MDA-MB-436, 7 days. The protocol:
The cells were cultured in complete medium (DMEM medium +10% FBS+Insulin+glutathione). When the confluence reached about 80%, cells were digested and gently dispensed from the bottom of the dish with a 1 mL pipette. Cell suspension was collected and centrifuged at 500 rpm for 3 min. The supernatant was discarded, and the cell pellet were re-suspended in complete medium. The cells were seeded into a culture dish at an appropriate proportion, and then cultured in a 5% CO2 incubator at 37° C. The assay was carried out when the cells were in optimum condition and the confluence was reached 80%. Cells were harvested in the logarithmic growth phase by using 1 mL pipette gently and then centrifugated at 500 rpm for 3 min. The cells were resuspended by using refresh medium after removing the supernatant and then the cells were counted. The cells were seeded at 3000/well in a 96 well plate and incubated at 37° C. 5% CO2 incubator overnight. In the second day, cells were treated with compound at 8 serially diluted dose with 1000×final concentration in 100% DMSO. The compound was prepared as below: 1000×dilution tested compound solution to 40×test compound solution by adding 5μL, 1000×compound solution to 120 μL Medium (25-fold dilution). The solution was mixed by oscillation. DMSO was used as the control.
The medium was removed from the wells in the plate after the plate was taken out from incubator. Then, fresh medium of 195 μL/per well was added to the 96 well plate. 5μL/per well of 40×test compound solution was added into the 96 well plate. Finally, the plate was incubated for 7 days in a 37° C. 5% CO2 incubator. The medium containing compound was changed once on the fourth day. After 7 days, 20 μL of CCK-8 was added to each well and shake gently, then was cultured for 4 hours. The plate was shaken for 5 min after incubation, the absorbance values of 450 nm. and 650nm wavelengths were recorded respectively (OD=absorbance value of 450 nm−absorbance value of 650 nm) by using the multifunction readout instrument.
Data were analyzed by software GraphPad Prism 6.0. The inhibitory activity of compounds on cell proliferation was plotted using cell survival rate against the compound concentration as coordinates. Cell survival rate %=(ODcompound−ODbackground)/(ODDMSO−ODbackground)×100. The IC50 value was fitted by the s-shaped dose response curve equation: Y=100/(1+10^(log C−log IC50)), and C was the compound concentration.
Table 2 summarizes the inhibitory effect data (IC50) of the compounds on the proliferation of human breast cancer cells MDA-MB-436, wherein ++++ indicates 1<IC50≤10 nM; +++ indicates 10 nM<IC50≤100 nM; ++ indicates 100 nM<IC50≤1 μM; + indicates IC50>1 μM.

The target of a further assay is PARP1 (Homo sapiens, UniProt P09874). Put plainly: PARP1 chemiluminescent assay. The class given is biochemical. As to conditions: recombinant PARP1 enzyme activity, chemiluminescence. The protocol: as §1
PARP1, sequence (P09874 whole entry): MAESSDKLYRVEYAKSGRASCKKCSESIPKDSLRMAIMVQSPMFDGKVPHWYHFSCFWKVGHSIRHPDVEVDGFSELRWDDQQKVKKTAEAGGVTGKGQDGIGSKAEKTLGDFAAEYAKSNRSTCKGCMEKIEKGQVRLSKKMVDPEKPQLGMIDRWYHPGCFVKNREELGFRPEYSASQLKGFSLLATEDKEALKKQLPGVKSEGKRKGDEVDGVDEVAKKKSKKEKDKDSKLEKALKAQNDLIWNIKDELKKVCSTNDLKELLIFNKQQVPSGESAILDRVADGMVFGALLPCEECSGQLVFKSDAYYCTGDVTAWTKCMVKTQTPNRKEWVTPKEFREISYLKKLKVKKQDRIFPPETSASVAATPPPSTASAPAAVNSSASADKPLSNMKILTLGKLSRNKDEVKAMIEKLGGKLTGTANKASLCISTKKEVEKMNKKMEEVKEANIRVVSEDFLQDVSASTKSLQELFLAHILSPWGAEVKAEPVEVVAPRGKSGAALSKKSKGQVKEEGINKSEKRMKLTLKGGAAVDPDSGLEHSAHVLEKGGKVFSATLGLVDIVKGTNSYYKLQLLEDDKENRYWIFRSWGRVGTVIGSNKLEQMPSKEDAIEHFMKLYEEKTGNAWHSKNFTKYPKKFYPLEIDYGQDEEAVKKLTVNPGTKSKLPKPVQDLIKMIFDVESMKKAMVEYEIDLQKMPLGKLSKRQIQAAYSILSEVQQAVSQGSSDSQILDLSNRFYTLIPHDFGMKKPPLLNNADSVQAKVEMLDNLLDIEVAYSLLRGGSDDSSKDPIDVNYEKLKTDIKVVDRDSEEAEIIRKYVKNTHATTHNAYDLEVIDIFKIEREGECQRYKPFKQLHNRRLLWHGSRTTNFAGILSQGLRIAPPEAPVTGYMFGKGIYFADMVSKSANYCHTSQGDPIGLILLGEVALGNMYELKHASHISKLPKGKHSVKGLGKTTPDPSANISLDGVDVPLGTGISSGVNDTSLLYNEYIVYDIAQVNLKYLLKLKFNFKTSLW

PARP2, sequence (Q9UGN5 whole entry, species assumed): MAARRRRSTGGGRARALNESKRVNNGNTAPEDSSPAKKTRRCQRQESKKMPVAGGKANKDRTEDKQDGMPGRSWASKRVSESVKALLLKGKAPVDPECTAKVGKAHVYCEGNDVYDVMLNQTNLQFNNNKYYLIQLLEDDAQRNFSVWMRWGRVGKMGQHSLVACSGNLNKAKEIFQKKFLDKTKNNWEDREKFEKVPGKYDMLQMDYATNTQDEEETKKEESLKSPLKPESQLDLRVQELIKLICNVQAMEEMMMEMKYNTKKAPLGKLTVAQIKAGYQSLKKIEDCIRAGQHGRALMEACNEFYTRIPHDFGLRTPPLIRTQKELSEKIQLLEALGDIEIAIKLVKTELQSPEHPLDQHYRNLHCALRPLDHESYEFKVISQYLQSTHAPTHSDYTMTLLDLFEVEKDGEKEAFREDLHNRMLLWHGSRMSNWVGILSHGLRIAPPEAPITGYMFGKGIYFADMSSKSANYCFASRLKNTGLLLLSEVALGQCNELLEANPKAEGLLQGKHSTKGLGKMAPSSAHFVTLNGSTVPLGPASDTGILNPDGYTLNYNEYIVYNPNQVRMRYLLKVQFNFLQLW

For the molecule `CCn1c(=O)[nH]c2cc(CN3CCN(c4ccc(C(=O)NC)nc4)CC3)cnc2c1=O` [Example 1, 5-(4-((3-ethyl-2,4-dioxo-1,2,3,4-tetrahydropyrido[3,2-d]pyrimidin-7-yl)methyl)piperazin-1-yl)-N-methylpicolinamide], the results for the half-inhibitory concentration (IC50) at PARP2, with MDA-MB-436 cells and on PARP1 were 100 to 1000 nM, above 1 µM and at most 1 nM, respectively.

Take `CNC(=O)c1ccc(N2CCN(Cc3cnc4c(=O)n(C(C)C)c(=O)[nH]c4c3)CC2)cn1` [Example 3, 5-(4-((3-isopropyl-2,4-dioxo-1,2,3,4-tetrahydropyrido[3,2-d]pyrimidin-7-yl)methyl)piperazin-1-yl)-N-methylpicolinamide]: the IC50 on PARP2 was above 1000 nM; in the assay on MDA-MB-436 cells, above 1 µM; on PARP1, 10 to 100 nM.

On to `CCn1c(=O)[nH]c2cc(CN3CCN(c4ccc(C(=O)NC)nc4C)CC3)cnc2c1=O` [Example 4, 5-(4-((3-ethyl-2,4-dioxo-1,2,3,4-tetrahydropyrido[3,2-d]pyrimidin-7-yl)methyl)piperazin-1-yl)-N,6-dimethylpicolinamide], for which the IC50 on PARP2 is above 1000 nM; in the assay on MDA-MB-436 cells, 0.01 to 0.1 µM; at PARP1 it was 1 to 10 nM.

For `CCCn1c(=O)[nH]c2cc(CN3CCN(c4ccc(C(=O)NC)nc4)CC3)cnc2c1=O` [Example 7], the results for the IC50 on PARP2, in the assay with MDA-MB-436 cells and on PARP1 were above 1000 nM, above 1 µM and at most 1 nM, respectively.

Regarding `CCn1c(=O)[nH]c2cc(CN3CCN(c4ccc(C(=O)NC)nc4Cl)CC3)cnc2c1=O` [Example 10, 5-(4-((3-ethyl-2,4-dioxo-1,2,3,4-tetrahydropyrido[3,2-d]pyrimidin-7-yl)methyl)piperazin-1-yl)-6-chloro-N-methylpicolinamide], the IC50 on PARP2 is above 1000 nM; with MDA-MB-436 cells it was above 1 µM; on PARP1, 1 to 10 nM.

In the case of `CCn1c(=O)[nH]c2cc(CN3CCN(c4ccc(C(=O)NC)nc4)CC3)ccc2c1=O` [Example 12, 5-(4-((3-ethyl-2,4-dioxo-1,2,3,4-tetrahydroquinazolin-7-yl)methyl)piperazin-1-yl)-N-methylpicolinamide], the IC50 was in the range of 100 to 1000 nM at PARP2, 0.01 to 0.1 µM in the assay with MDA-MB-436 cells and 1 to 10 nM at PARP1.

Turning to `CCn1c(=O)[nH]c2cc(CN3CCN(c4ccc(C(=O)NC)nc4F)CC3)ccc2c1=O` [Example 13, 5-(4-((3-ethyl-2,4-dioxo-1,2,3,4-tetrahydroquinazolin-7-yl)methyl)piperazin-1-yl)-6-fluoro-N-methylpicolinamide], the IC50 on PARP2 lay within 100 to 1000 nM; in the assay with MDA-MB-436 cells it was 0.001 to 0.01 µM; on PARP1, 1 to 10 nM.

For `CCn1c(=O)[nH]c2cc(CN3CCN(c4ccc(C(=O)NC)nc4F)CC3)c(F)cc2c1=O` [Example 14, 5-(4-((3-ethyl-6-fluoro-2,4-dioxo-1,2,3,4-tetrahydroquinazolin-7-yl)methyl)piperazin-1-yl)-6-fluoro-N-methylpicolinamide], the half-maximal inhibitory concentration (IC50) fell in the range of 100 to 1000 nM at PARP2, 0.01 to 0.1 µM in the assay on MDA-MB-436 cells and 1 to 10 nM at PARP1.

As for `CCN1Cc2ccc(CN3CCN(c4ccc(C(=O)NC)nc4)CC3)cc2NC1=O` [Example 15, 5-(4-((3-ethyl-2-oxo-1,2,3,4-tetrahydroquinazolin-7-yl)methyl)piperazin-1-yl)-N-methylpicolinamide], the IC50 is above 1000 nM at PARP2, 0.1 to 1 µM in the assay with MDA-MB-436 cells and 1 to 10 nM on PARP1.

`CCn1c(=O)[nH]c2cc(CN3CCN(c4ccc(C(=O)NC)nc4)CC3)ccc21` [Example 16, 5-(4-((1-ethyl-2-oxo-2,3-dihydro-1H-benzo[d]imidazol-5-yl)methyl)piperazin-1-yl)-N-methylpicolinamide]: the values for the IC50 at PARP2, in the assay on MDA-MB-436 cells and on PARP1 were above 1000 nM, above 1 µM and above 1000 nM, respectively.

For the molecule `CNC(=O)c1ccc(N2CCN(Cc3ccc4c(=O)n(C)c(=O)[nH]c4c3)CC2)c(F)n1` [Example 17, 5-(4-((3-methyl-2,4-dioxo-1,2,3,4-tetrahydroquinazolin-7-yl)methyl)piperazin-1-yl)-6-fluoro-N-methylpicolinamide], the IC50 at PARP2 is above 1000 nM; with MDA-MB-436 cells, 0.01 to 0.1 µM; on PARP1 it was 1 to 10 nM.

`CCCn1c(=O)[nH]c2cc(CN3CCN(c4ccc(C(=O)NC)nc4F)CC3)ccc2c1=O` [Example 19, 5-(4-((2,4-dioxo-3-propyl-1,2,3,4-tetrahydroquinazolin-7-yl)methyl)piperazin-1-yl)-6-fluoro-N-methylpicolinamide]: the IC50 was above 1000 nM at PARP2, 0.01 to 0.1 µM in the assay on MDA-MB-436 cells and 1 to 10 nM at PARP1.

Consider `CCn1c(=O)[nH]c2cc(CN3CCN(c4ccc(C(=O)NC)nc4Cl)CC3)ccc2c1=O` [Example 21, 5-(4-((3-ethyl-2,4-dioxo-1,2,3,4-tetrahydroquinazolin-7-yl)methyl)piperazin-1-yl)-6-chloro-N-methylpicolinamide], for which the IC50 on PARP2 was 10 to 100 nM; with MDA-MB-436 cells it was 0.001 to 0.01 µM; at PARP1, at most 1 nM.

Take `CCn1c(=O)[nH]c2cc(CN3CCN(c4ccc(C(=O)NC)nc4C)CC3)ccc2c1=O` [Example 22, 5-(4-((3-ethyl-2,4-dioxo-1,2,3,4-tetrahydroquinazolin-7-yl)methyl)piperazin-1-yl)-N,6-dimethylpicolinamide]: the IC50 was above 1000 nM on PARP2, 0.001 to 0.01 µM in the assay with MDA-MB-436 cells and 1 to 10 nM on PARP1.

`CCNC(=O)c1ccc(N2CCN(Cc3cc(F)c4c(c3)NC(=O)N(CC)C4)CC2)c(Cl)n1` [Example 122, 6-chloro-N-ethyl-5-(4-((3-ethyl-5-fluoro-2-oxo-1,2,3,4-tetrahydroquinazolin-7-yl)methyl)piperazin-1-yl)picolinamide]: the IC50 with MDA-MB-436 cells was in the range of 0.01 to 0.1 µM; at PARP1, 1 to 10 nM.

In the case of `CCn1c(=O)[nH]c2cc(CN3CCN(c4ccc(C(=O)NC)nc4F)CC3)cc(Cl)c2c1=O` [Example 136, 5-(4-((5-chloro-3ethyl-2,4-dioxo-1,2,3,4-tetrahydroquinazolin-7-yl)methyl)piperazin-1-yl)-6-fluoro-N-methylpicolinamide], in the assay with MDA-MB-436 cells, the 50% inhibitory concentration (IC50) fell in the range of 0.001 to 0.01 µM.

In the assay on MDA-MB-436 cells, `CCN1Cc2ccc(CN3CCN(c4ccc(C(=O)NC5CC5)nc4C)CC3)cc2NC1=O` [Example 137, N-cyclopropyl-5-(4-((3-ethyl-2-oxo-1,2,3,4-tetrahydroquinazolin-7-yl)methyl)piperazin-1-yl)-6-methylpicolinamide] displayed an IC50 of 0.01 to 0.1 µM.

`CNC(=O)c1ccc(N2CCN(Cc3ccc4c(=O)n(C)c(=O)[nH]c4c3F)CC2)c(F)n1` [Example 138, 6-fluoro-5-(4-((8-fluoro-3-methyl-2,4-dioxo-1,2,3,4-tetrahydroquinazolin-7-yl)methyl)piperazin-1-yl)-N-methylpicolinamide] displayed an IC50 in the assay with MDA-MB-436 cells of 0.01 to 0.1 µM.

`CCn1c(=O)[nH]c2cc(CN3CCN(c4ccc(C(=O)NC5CC5)nc4F)CC3)cc(F)c2c1=O` [Example 141, N-cyclopropyl-5-(4-((3-ethyl-5-fluoro-2,4-dioxo-1,2,3,4-tetrahydroquinazolin-7-yl)methyl)piperazin-1-yl)-6-fluoropicolinamide] displayed an IC50 with MDA-MB-436 cells of 0.001 to 0.01 µM.

With `CCN1Cc2ncc(CN3CCN(c4ccc(C(=O)NC)nc4)CC3)cc2NC1=O` [Example 144, 5-(4-((3-ethyl-2-oxo-1,2,3,4-tetrahydropyrido[3,2-d]pyrimidin-7-yl)methyl)piperazin-1-yl)-N-methylpicolinamide], the IC50 in the assay with MDA-MB-436 cells is 0.01 to 0.1 µM.
